Experimental data from article PMC5381205, “A Clinically Relevant Variant of the Human Hydrogen Sulfide-Synthesizing Enzyme Cystathionine β-Synthase: Increased CO Reactivity as a Novel Molecular Mechanism of Pathogenicity?” (Oxidative Medicine and Cellular Longevity, 2017).
Numbering of substitutions follows the chain as printed. Several values for one entry are separate records, joined by “and”; a condition that tells them apart may be missing. Equal values may be shown once. Read-outs that look alike come from different tables or passages of the source.

Tests used:
[1] = molecular target: T1, human CBS p.P49L (ferrous heme) (Homo sapiens, UniProt P35520, P49L); assay: Stopped-flow kinetics of CO binding to ferrous CBS p.P49L; settings: for CO binding fitted rate constant k2 / CO binding fitted rate constant k1 / CO binding fitted rate constant k3: 1 mM CO, 25°C; for CO binding fitted rate constant k2: 30% reaction amplitude
T1 construct: Recombinant full-length human CBS p.P49L was expressed and purified; made in house; host or cells: E. coli
T1 sequence (P35520 1-551 P49L): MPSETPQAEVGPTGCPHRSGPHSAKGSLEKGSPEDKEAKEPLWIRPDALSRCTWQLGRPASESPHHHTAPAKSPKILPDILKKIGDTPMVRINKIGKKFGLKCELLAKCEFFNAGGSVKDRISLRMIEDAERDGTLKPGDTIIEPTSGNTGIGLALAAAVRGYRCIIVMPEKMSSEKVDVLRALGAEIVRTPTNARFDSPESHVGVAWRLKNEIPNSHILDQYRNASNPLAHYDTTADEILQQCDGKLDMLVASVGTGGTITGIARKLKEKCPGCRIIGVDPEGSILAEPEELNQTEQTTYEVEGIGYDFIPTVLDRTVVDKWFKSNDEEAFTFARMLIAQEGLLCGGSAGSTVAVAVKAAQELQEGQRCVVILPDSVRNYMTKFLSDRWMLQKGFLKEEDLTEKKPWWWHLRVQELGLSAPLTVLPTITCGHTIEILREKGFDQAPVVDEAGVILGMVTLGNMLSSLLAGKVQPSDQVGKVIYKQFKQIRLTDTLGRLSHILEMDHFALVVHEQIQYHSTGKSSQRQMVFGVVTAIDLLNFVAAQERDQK
Protocol: (§1) Time-resolved absorption spectroscopy experiments were carried out in a thermostated stopped-flow instrument (DX.17MV, Applied Photophysics), equipped with a photodiode-array (light path, 1 cm). To avoid light-induced artifacts, the intensity of the white-light incident beam was decreased and a filter cutting UV light at λ < 360 nm was employed. Absorption spectra were recorded with an acquisition time of 10 ms per spectrum according to a logarithmic time scale. All reactions were carried out at 25°C in buffer A. CBS p.P49L was thoroughly flushed with nitrogen, after which glucose oxidase (4 units·ml^−1), catalase (13 μg·ml^−1), superoxide dismutase (12 units·ml^−1), and glucose (3 mM) were added to scavenge oxygen, hydrogen peroxide, and superoxide anion. The protein was then placed on ice, protected from light to prevent possible damaging photoreactions. When indicated, CBS p.P49L was incubated with AdoMet for ≥10 minutes, prior to reduction with 90 µM sodium dithionite. CO association kinetics were studied by mixing in the stopped-flow apparatus reduced CBS p.P49L, in the absence or presence of AdoMet, with CO solutions and the spectra recorded over time. CO dissociation kinetics were evaluated by mixing the Fe(II)-CO adduct of CBS p.P49L with NO• stock solutions, prepared by equilibrating degassed ultra-pure water with NO• gas at 1 atm, further kept on ice protected from light.
(§2) CO affinity titrations and CO binding and dissociation kinetic data were analyzed with the software MATLAB (Mathworks). Global fit analysis of spectral data was performed by singular value decomposition analysis combined with curve fitting.

[2] = molecular target: T2, human WT CBS (ferrous heme) (Homo sapiens, UniProt P35520); assay: Stopped-flow kinetics of CO binding to ferrous WT CBS; settings: WT enzyme
T2 construct: employed in this study, corresponding to full-length CBS WT and p.P49L purified in the absence; made in house
T2 sequence (P35520 1-551): T1 sequence (P35520 1-551 P49L) with L49P

[3] = molecular target: T3, recombinant human CBS p.P49L (Homo sapiens, UniProt P35520, P49L); assay: H2S synthesis assay (amperometric and lead acetate methods), CBS p.P49L; assay type: biochemical; settings: 37°C; for H2S-synthesizing activity stimulation by AdoMet: 500 μM AdoMet
T3 construct: Recombinant full-length human CBS p.P49L was expressed and purified; made in house; host or cells: E. coli
T3 sequence (P35520 1-551 P49L): T1 sequence (P35520 1-551 P49L)
Protocol: (§3) H2S production by recombinant human CBS variants was measured at 37°C, either by amperometry using a H2S-selective electrode (World Precision Instruments) or by the lead acetate method. Purified CBS (0.5–1 μM) was incubated for 10 minutes with 50 μM PLP, 260 U/ml catalase, and 0.4–2.0 mM homocysteine in the absence or presence of 0.5 mM AdoMet, after which 10 mM cysteine was added to trigger the reaction. Amperometric assays were performed using an ISO-H2S-2 hydrogen sulfide sensor coupled to an Apollo 4000 Free Radical Analyzer (World Precision Instruments). After recording H2S production for 3 minutes, the electrode was internally calibrated by adding 4 μM NaHS (corresponding to 2 μM H2S at pH 7.0). Finally, 50 μM o-acetylserine and 200 nM Entamoeba histolytica o-acetylserine sulfhydrylase were added to the reaction mixture to remove H2S from solution and bring the signal back to baseline. Activity assays by the lead acetate method were carried out in a thermostated cuvette under stirring, according to [5]. Lead acetate (400 μM) was added to the reaction mix prior to cysteine addition and H2S production monitored at 390 nm in an Agilent Cary-60 spectrophotometer.

recombinant human WT CBS [4] = molecular target: T4, recombinant human WT CBS (Homo sapiens, UniProt P35520); assay: H2S synthesis assay (amperometric and lead acetate methods), WT CBS; assay type: biochemical; settings: for H2S-synthesizing activity stimulation by AdoMet: 500 μM AdoMet, 37°C
T4 construct: employed in this study, corresponding to full-length CBS WT and p.P49L purified in the absence; made in house
T4 sequence (P35520 1-551): T1 sequence (P35520 1-551 P49L) with L49P
Protocol: as §3

recombinant human WT CBS [5] = molecular target: T4, recombinant human WT CBS; settings: isolated proteins and bacterial or human cell lysates; cited from earlier work
[6] = molecular target: T1, human CBS p.P49L (ferrous heme); assay: Anaerobic CO titrations of reduced CBS p.P49L (UV-visible absorption); assay type: binding; settings: 20°C
Protocol: UV-visible absorption spectra of oxidized and reduced CBS p.P49L and WT were recorded in an Agilent Cary-60 spectrophotometer. Anaerobic titrations of reduced CBS p.P49L with CO were performed at 20°C in an Agilent Cary-60 or a Shimadzu UVPC-1800 spectrophotometer. Gas exchange was prevented either by filling the quartz cuvette and sealing it with a rubber-cap or by adding mineral oil on top of the aqueous medium. Anaerobic conditions were ensured by nitrogen flushing and addition of glucose oxidase (4 units·ml^−1), catalase (13 μg·ml^−1), superoxide dismutase (12 units·ml^−1), and glucose (3 mM) to scavenge contaminant oxygen, hydrogen peroxide, and superoxide anion. CBS p.P49L and WT (1.4–1.6 μM in heme) were reduced with 90 μM sodium dithionite, diluted from a 45 mM stock solution (quantitated using ε314 nm = 8,043 M^−1·cm^−1 [50]). CO stock solutions were prepared by equilibrating thoroughly degassed buffer A with the pure gas at 1 atm, yielding 1 mM CO at 20°C. After each CO addition with gas-tight Hamilton syringes, the spectral changes were visually inspected in real time and a new addition was immediately made when no more changes were observed.
According to [16, 19, 20, 51], two apparent Kd (Kd1 and Kd2) were used to satisfactorily fit the CO affinity data. The Kd1 and Kd2 values were obtained by fitting the data to (1), where PL is the concentration of CO-bound CBS p.P49L, PT and LT are, respectively, the total CBS p.P49L and CO concentrations, and α1 and α2 are, respectively, the protein fractions binding CO at higher (Kd1) and lower (Kd2) affinity. (1) PL=α1PT+LT+Kd1−PT+LT+Kd1^2−4PTLT+α2PT+LT+Kd2−PT+LT+Kd2^2−4PTLT/2.
as §2

[7] = molecular target: T5, human CBS p.P49L Fe(II)-CO adduct (Homo sapiens, UniProt P35520, P49L); assay: Stopped-flow kinetics of CO dissociation (displacement by NO•) from CBS p.P49L; assay type: binding; settings: for CO displacement by NO• rate constant k2: 25% reaction amplitude
T5 construct: Recombinant full-length human CBS p.P49L was expressed and purified; made in house; host or cells: E. coli
T5 sequence (P35520 1-551 P49L): T1 sequence (P35520 1-551 P49L)
Protocol: as §1, §2

[8] = molecular target: T6, human WT CBS Fe(II)-CO adduct (Homo sapiens, UniProt P35520); assay: Stopped-flow kinetics of CO dissociation (displacement by NO•) from WT CBS; assay type: binding; settings: WT enzyme; NO• 900 µM after mixing; 75% relative amplitude; data not shown
T6 construct: employed in this study, corresponding to full-length CBS WT and p.P49L purified in the absence; made in house
T6 sequence (P35520 1-551): T1 sequence (P35520 1-551 P49L) with L49P

[9] = AdoMet-bound CBS p.P49L, 35% reaction amplitude

C[S+](CC[C@H](N)C(=O)[O-])C[C@H]1O[C@@H](n2cnc3c(N)ncnc32)[C@H](O)[C@@H]1O (stereo partly drawn) [AdoMet, S-Adenosyl-L-methionine]
fold increase in the CO association rate in the presence of AdoMet ([1]; p.P49L variant): ~ 4.5 fold | fold increase in the CO association rate in the presence of AdoMet [2]: ~ 2 fold | H2S-synthesizing activity stimulation by AdoMet ([3]; p.P49L purified in the absence of PLP (PLP-untreated)): 1.4 fold | H2S-synthesizing activity stimulation by AdoMet ([3]; p.P49L purified in the presence of 20 μM PLP (PLP-treated)): 1.1 fold | AdoMet activation factor observed for the WT enzyme (recombinant human WT CBS [4]; WT enzyme, overall): ≤ 2 fold | H2S-synthesizing activity stimulation by AdoMet (recombinant human WT CBS [4]; WT purified in the absence of PLP (PLP-untreated)): 1.5 fold | H2S-synthesizing activity stimulation by AdoMet (recombinant human WT CBS [4]; WT purified in the presence of 20 μM PLP (PLP-treated)): 1.9 fold | AdoMet activation factor of CBS enzymatic activity, as usually reported (recombinant human WT CBS [5]): 2–5 fold

Cc1ncc(COP(=O)(O)O)c(C=O)c1O [PLP, Pyridoxal 5′-phosphate]
basal H2S-synthesizing activity of p.P49L after PLP supplementation along the purification ([3]; p.P49L purified in the presence of 20 μM PLP (PLP-treated), compared with WT): basal activity similar to the WT enzyme

[C-]#[O+] [CO, Carbon monoxide]
Kd ([6]; AdoMet-bound p.P49L CBS (500 μM AdoMet), 30% relative amplitude, read-out: KdCO,2): 1500 nM and 2100 nM | Kd ([6]; AdoMet-bound p.P49L CBS (500 μM AdoMet), 70% relative amplitude, upper limit, read-out: KdCO,1): ≤ 30 nM | Kd ([6]; AdoMet-free p.P49L CBS, higher-affinity fraction, 60% relative amplitude, read-out: KdCO,1): 60 nM and 50 nM | Kd ([6]; AdoMet-free p.P49L CBS, lower-affinity fraction, 40% relative amplitude, read-out: KdCO,2): 21000 nM and 22000 nM | CO binding fitted rate constant k2 ([1]; AdoMet-bound CBS p.P49L): 0.26 s⁻¹ | CO binding fitted rate constant k1 [1, 9]: 2.55 s⁻¹ | CO binding fitted rate constant k3 [1, 9]: 0.022 s⁻¹ | CO binding fitted rate constant k1 ([1]; AdoMet-free CBS p.P49L, 25% reaction amplitude): 0.48 s⁻¹ | CO binding fitted rate constant k2 ([1]; AdoMet-free CBS p.P49L): 0.05 s⁻¹ | CO binding fitted rate constant k3 ([1]; AdoMet-free CBS p.P49L, 45% reaction amplitude): 0.006 s⁻¹ | CO displacement by NO• rate constant k2 ([7]; AdoMet-bound CBS p.P49L (500 μM before mixing), 900 μM NO•, Figure 5(b) fit): 0.038 s⁻¹ | CO displacement by NO• rate constant k1 ([7]; AdoMet-bound CBS p.P49L (500 μM before mixing), 900 μM NO•, 75% reaction amplitude, Figure 5(b) fit): 1.96 s⁻¹ | CO displacement by NO• rate constant k2 ([7]; AdoMet-free CBS p.P49L, 900 μM NO•, Figure 5(b) fit): 0.035 s⁻¹ | CO displacement by NO• rate constant k1 ([7]; AdoMet-free CBS p.P49L, 900 μM NO•, 75% reaction amplitude, Figure 5(b) fit): 1.93 s⁻¹ | CO displacement by NO• rate constant k1 ([7]; CBS p.P49L, NO• 900 µM after mixing, 75% relative amplitude, no effect of AdoMet): 2.0 ± 0.1 s⁻¹ | CO displacement by NO• rate constant k1 [8]: 2.0 ± 0.1 s⁻¹
